In US20180186742A1, “PICOLINAMIDES AS FUNGICIDES” (Dow AgroSciences LLC, priority 2017, published 2018):
Like-named read-outs stand apart in the source and are kept apart here.

What was measured:
[1] = system: Puccinia triticina; test: Wheat brown rust (PUCCRT), disease control on wheat seedlings; format: in vivo; settings: for pest or weed control at 100 ppm: high volume application at 100 ppm; for pest or weed control at 121.5 g/ha: low volume application at 121.5 g/H
Method: Technical grades of materials were dissolved in acetone, which were then mixed with nine volumes of water containing 110 ppm Triton X-100. The fungicide solutions were applied onto wheat seedlings using an automated booth sprayer to run-off. All sprayed plants were allowed to air dry prior to further handling. All fungicides were evaluated using the aforementioned method for their activity vs. all target diseases, unless stated otherwise. Wheat leaf blotch and brown rust activity were also evaluated using track spray applications, in which case the fungicides were formulated as EC formulations, containing 0.1% Trycol 5941 in the spray solutions. Wheat plants (variety Yuma) were grown from seed in a greenhouse in 50% mineral soil/50% soil-less Metro mix until the first leaf was fully emerged, with 7-10 seedlings per pot. These plants were inoculated with an aqueous spore suspension of Puccinia triticina either prior to or after fungicide treatments. After inoculation the plants were kept in a dark dew room at 22° C. with 100% relative humidity overnight to permit spores to germinate and infect the leaf. The plants were then transferred to a greenhouse set at 24° C. for disease to develop. Fungicide formulation, application and disease assessment followed the procedures as described in the Example A.

[2] = system: Zymoseptoria tritici; test: Leaf blotch of wheat (SEPTTR), disease control on wheat seedlings; format: in vivo; settings: for pest or weed control at 100 ppm: high volume application at 100 ppm; for pest or weed control at 121.5 g/ha: low volume application at 121.5 g/H
Method: Technical grades of materials were dissolved in acetone, which were then mixed with nine volumes of water containing 110 ppm Triton X-100. The fungicide solutions were applied onto wheat seedlings using an automated booth sprayer to run-off. All sprayed plants were allowed to air dry prior to further handling. All fungicides were evaluated using the aforementioned method for their activity vs. all target diseases, unless stated otherwise. Wheat leaf blotch and brown rust activity were also evaluated using track spray applications, in which case the fungicides were formulated as EC formulations, containing 0.1% Trycol 5941 in the spray solutions. Wheat plants (variety Yuma) were grown from seed in a greenhouse in 50% mineral soil/50% soil-less Metro mix until the first leaf was fully emerged, with 7-10 seedlings per pot. These plants were inoculated with an aqueous spore suspension of Zymoseptoria tritici either prior to or after fungicide treatments. After inoculation the plants were kept in 100% relative humidity (one day in a dark dew chamber followed by two to three days in a lighted dew chamber at 20° C.) to permit spores to germinate and infect the leaf. The plants were then transferred to a greenhouse set at 20° C. for disease to develop. When disease symptoms were fully expressed on the 1st leaves of untreated plants, infection levels were assessed on a scale of 0 to 100 percent disease severity. Percent disease control was calculated using the ratio of disease severity on treated plants relative to untreated plants.

[3] = 24 h, 1 Day Protectant, read-out: PUCCRT disease control, 1DP, HV activity
[4] = 72 h, 3 Day Curative, read-out: PUCCRT disease control, 3DC, HV activity
[5] = 24 h, 1 Day Protectant, read-out: SEPTTR disease control, 1DP, HV activity
[6] = 72 h, 3 Day Curative, read-out: SEPTTR disease control, 3DC, HV activity
[7] = 24 h, 1 Day Protectant, read-out: PUCCRT disease control, 1DP, LV activity
[8] = 72 h, 3 Day Curative, read-out: PUCCRT disease control, 3DC, LV activity
[9] = 24 h, 1 Day Protectant, read-out: SEPTTR disease control, 1DP, LV activity
[10] = 72 h, 3 Day Curative, read-out: SEPTTR disease control, 3DC, LV activity

SMILES | pest or weed control at 100 ppm [1, 3] [%] | pest or weed control at 100 ppm [1, 4] [%] | pest or weed control at 100 ppm [2, 5] [%] | pest or weed control at 100 ppm [2, 6] [%] | pest or weed control at 121.5 g/ha [1, 7] [%] | pest or weed control at 121.5 g/ha [1, 8] [%] | pest or weed control at 121.5 g/ha [2, 9] [%] | pest or weed control at 121.5 g/ha [2, 10] [%]
COc1cc(F)ccc1[C@@H](C1CCC1)[C@H](C)OC(=O)[C@H](C)NC(=O)c1nccc(OC)c1O [Compound 142] | > 80 | > 80 | < 0 | < 80 |  |  |  | 
COc1cc(F)ccc1[C@H](C1CCCCC1)[C@H](C)OC(=O)[C@H](C)NC(=O)c1nccc(OC)c1O [Compound 143] | > 80 | > 80 | > 80 | < 80 |  |  |  | 
COc1cc(F)ccc1[C@H](C1CCCC1)[C@H](C)OC(=O)[C@H](C)NC(=O)c1nccc(OC)c1O [Compound 144] | > 80 | > 80 | < 80 | > 80 |  |  |  | 
CCC(CC)[C@@H](c1ccc(F)cc1OC)[C@H](C)OC(=O)[C@H](C)NC(=O)c1nccc(OC)c1O [Compound 145] | > 80 | > 80 | < 80 | > 80 |  |  |  | 
CCC(C)[C@@H](c1ccc(F)cc1OC)[C@H](C)OC(=O)[C@H](C)NC(=O)c1nccc(OC)c1O (some centres unmarked) [Compound 146] | > 80 | > 80 | < 80 | > 80 |  |  |  | 
COc1cc(F)ccc1[C@H](C1CCC1)[C@H](C)OC(=O)[C@H](C)NC(=O)c1nccc(OC)c1O [Compound 147] | > 80 | > 80 | < 0 | < 80 |  |  |  | 
COc1cc(F)ccc1[C@H](C(C)C)[C@H](C)OC(=O)[C@H](C)NC(=O)c1nccc(OC)c1O [Compound 148] | < 80 | > 80 | < 0 | < 80 |  |  |  | 
COc1ccnc(C(=O)N[C@@H](C)C(=O)O[C@@H](C)[C@@H](c2ccc(C)cc2C)C2CCC2)c1O [Compound 149] | < 80 | < 80 | < 80 | > 80 |  |  |  | 
COc1ccnc(C(=O)N[C@@H](C)C(=O)O[C@@H](C)[C@@H](c2ccccc2)C(C)C)c1OC(C)=O [Compound 160] |  |  |  |  | > 80 | < 80 | < 80 | > 80
COc1ccnc(C(=O)N[C@@H](C)C(=O)O[C@@H](C)[C@@H](c2ccccc2)C2CCCC2)c1OC(C)=O [Compound 161] |  |  |  |  | > 80 | < 80 | < 80 | > 80
COc1ccnc(C(=O)N[C@@H](C)C(=O)O[C@@H](C)[C@@H](c2ccccc2)C2CCCC2)c1OCOC(C)=O [Compound 163] |  |  |  |  | > 80 | < 80 | < 80 | > 80
COc1ccnc(C(=O)N[C@@H](C)C(=O)O[C@@H](C)[C@H](c2ccccc2)C(C)C)c1OC(C)=O [Compound 165] |  |  |  |  | > 80 | > 80 | > 80 | > 80
COc1ccnc(C(=O)N[C@@H](C)C(=O)O[C@@H](C)[C@H](c2ccc(C)cc2)C2CC2)c1OC(C)=O [Compound 166] |  |  |  |  | > 80 | > 80 | < 80 | > 80
COc1ccnc(C(=O)N[C@@H](C)C(=O)O[C@@H](C)[C@H](c2ccc(C)cc2)C2CC2)c1OCOC(C)=O [Compound 167] |  |  |  |  | > 80 | > 80 | > 80 | > 80
COc1ccnc(C(=O)N[C@@H](C)C(=O)O[C@@H](C)[C@H](c2ccc(C)cc2)C(C)C)c1OC(C)=O [Compound 168] |  |  |  |  | > 80 | > 80 | < 80 | < 80
COc1ccnc(C(=O)N[C@@H](C)C(=O)OC(C)C(c2ccc(F)cc2)C(C)C)c1OC(C)=O (some centres unmarked) [Compound 169] |  |  |  |  | > 80 | > 80 | < 80 | > 80
COc1ccnc(C(=O)N[C@@H](C)C(=O)O[C@@H](C)[C@H](c2ccc(F)cc2)C2CC2)c1OC(C)=O [Compound 170] |  |  |  |  | > 80 | > 80 | > 80 | > 80
COc1ccnc(C(=O)N[C@@H](C)C(=O)O[C@@H](C)[C@H](c2ccc(F)cc2)C2CC2)c1OCOC(C)=O [Compound 171] |  |  |  |  | > 80 | > 80 | > 80 | > 80
CCC(CC)[C@@H](c1ccccc1)C(C)OC(=O)[C@H](C)NC(=O)c1nccc(OC)c1OC(C)=O (some centres unmarked) [Compound 172] |  |  |  |  | > 80 | > 80 | > 80 | > 80
COc1ccnc(C(=O)N[C@@H](C)C(=O)OC(C)[C@H](c2ccccc2)C2CCCC2)c1OC(C)=O (some centres unmarked) [Compound 173] |  |  |  |  | > 80 | < 80 | > 80 | > 80
CCC(CC)[C@@H](c1ccccc1)C(C)OC(=O)[C@H](C)NC(=O)c1nccc(OC)c1OCOC(C)=O (some centres unmarked) [Compound 174] |  |  |  |  | > 80 | > 80 | > 80 | > 80
COc1ccnc(C(=O)N[C@@H](C)C(=O)OC(C)[C@H](c2ccccc2)C2CCCC2)c1OCOC(C)=O (some centres unmarked) [Compound 175] |  |  |  |  | > 80 | > 80 | > 80 | > 80
COc1ccnc(C(=S)N[C@@H](C)C(=O)OC(C)[C@H](c2ccccc2)C2CCCC2)c1OC(C)=O (some centres unmarked) [Compound 176] |  |  |  |  | > 80 | < 80 | > 80 | > 80
COCCC(=O)Oc1c(OC)ccnc1C(=O)N[C@@H](C)C(=O)O[C@@H](C)[C@H](c1ccc(C)cc1)C(C)C [Compound 245] |  |  |  |  | > 80 | > 80 | < 80 | 
COCCC(=O)Oc1c(OC)ccnc1C(=O)N[C@@H](C)C(=O)O[C@@H](C)[C@H](c1ccc(F)c(C)c1)C(C)C [Compound 246] |  |  |  |  | > 80 | > 80 | > 80 | 
COCCC(=O)Oc1c(OC)ccnc1C(=O)N[C@@H](C)C(=O)O[C@@H](C)[C@H](c1ccc(OC)cc1F)C(C)C [Compound 247] |  |  |  |  | > 80 | > 80 | < 80 | 
COCCC(=O)Oc1c(OC)ccnc1C(=O)N[C@@H](C)C(=O)O[C@@H](C)[C@H](c1ccc(OC)c(F)c1)C(C)C [Compound 248] |  |  |  |  | < 80 | < 80 | < 80 | 
COCCC(=O)Oc1c(OC)ccnc1C(=O)N[C@@H](C)C(=O)O[C@@H](C)[C@H](c1ccc(C)cc1OC)C(C)C [Compound 249] |  |  |  |  | > 80 | > 80 | < 80 | 
COc1ccnc(C(=O)N[C@@H](C)C(=O)O[C@@H](C)[C@H](c2ccc(F)c(C)c2)C(C)C)c1OC(C)=O [Compound 250] |  |  |  |  | > 80 | > 80 | > 80 | 
